Laboratory results published in US11173150B2, “Method for diagnosing, preventing, and treating neurological diseases” (United States Government As Represented By The Department …, priority 2010, dated 2021).

Experiments:
[1] = test system: Desulfovibrio; assay: Antimicrobial susceptibility testing, CLSI serial two-fold plate dilution; format: cell-based; settings: for MIC: Desulfovibrio
[2] = oral administration; cited from earlier work
[3] = Open-label trial of oral vancomycin in children with regressive onset autism; format: in vivo, human
Source text: To explore whether our index case's improvement represented a true therapeutic effect, institutional human investigation committee approval was obtained for an open-label trial in a narrowly defined subgroup of autistic children. Eleven children (10 males, 1 female; age range: 43-84 months) were enrolled. Inclusion criteria for the study were derived from our central hypothesis and index case characteristics. They include 1) Meets diagnostic criteria for Autistic Disorder (DSM IV 299.00); 2) Other genetic and medical diagnoses have been adequately evaluated and ruled out; 3) Definable, rapid onset after 12 months of age; 4) Antecedent antimicrobial use (<2 months of autism symptom onset); 5) Persistent loose stool history, with diarrhea onset before autism symptoms; 6) Symptoms for <4 years; 7) Child is 2-8 years of age; 8) No evidence of any significant medical problem that might complicate treatment such as renal, cardiac or pulmonary disease, severe enterocolitis (visible blood or pus in the stool), or chronic infection (e.g., tuberculosis); and 9) Clinically static for 3 months (no new neuroleptic, seizure, or other medications), with no elective changes during the study, and 10) No antimicrobial use for at least 2 months prior to entry into the study. All children had diarrhea and regressive onset of autistic features (occurring at a mean of 17.7±3.4 months) as previously defined in the literature.
The Developmental Profile II provided descriptive developmental levels to contrast with developmental age. […] The Childhood Autism Rating Scale (CARS) was also administered. The CARS is a 15-item behavioral rating scale developed to identify children with autism, and to distinguish them from developmentally handicapped children without the autism syndrome. Based upon CARS diagnostic categories, six children met the criteria for severe autism, two for moderate autism, and three for mild autism. The vancomycin dose was 500 mg/day given orally as a liquid (500 mg/6 ml), divided into 2 ml TID for eight weeks. This was followed by four weeks of oral treatment with a probiotic mixture of Lactobacillus acidophilus, L. bulgaricus, and Bifidobacterium bifidum (40×10^9 cfu/ml).
Two measures of potential improvement were examined: I) Children were videotaped for 30 minutes at baseline and once during therapy in a playroom environment. At each session, the child was directed to play with a series of puzzles, books, blocks, and dolls by the mother and then by the evaluator. At the end of the trial, a clinical child psychologist (who was provided with a brief explanation of our working hypothesis) compared coded, paired videotapes of 10 of the 11 children studied (video was not available for one child). The psychologist viewed each pair of tapes and scored them. […] 2) Behavior and communication analog rating scales were completed by the study physician at baseline, during therapy, and at follow-up in a manner similar to previously validated methods for other disease states. Results are presented as median scores to account for potential non-linear score increment.

[4] = Index case: 12 week therapeutic trial of oral vancomycin; format: in vivo, human; settings: 125 mg QID oral, 12 weeks; person
Method: […] Diarrhea began after three 10 day courses of broad spectrum antimicrobials prescribed over a six week period for “chronic otitis media.” There was no blood or pus in the stool nor associated constitutional symptoms. There was profound behavioral and developmental deterioration, along with emergence of severe autistic features.
A 12 week therapeutic trial of oral vancomycin (125 mg QID) was begun with expanded observations by a pediatric neuropsychologist pre- and post-treatment. At baseline, the child was not on a special diet nor was […] taking any vitamin supplements. Three days after initiation of the vancomycin therapy, a hyperactivity pattern emerged which lasted for four days. […] became affectionate and relatively calm. […] promptly achieved toilet training and increased vocabulary. Follow-up behavioral observations after eight weeks of therapy noted an increase in on-task performance, compliance with parental requests, awareness of environmental surroundings, and persistence when engaging in positive activities. A significant reduction in repetitive and self-stimulatory behaviors was also noted. The child's educational therapies remained unchanged for both six months before and during the vancomycin trial. Shortly after vancomycin discontinuation, behavioral deterioration was observed. Though still improved over baseline, […] eventually lost most of the initial gains.

CN[C@H](CC(C)C)C(=O)N[C@H]1C(=O)N[C@@H](CC(N)=O)C(=O)N[C@H]2C(=O)N[C@H]3C(=O)N[C@H](C(=O)N[C@H](C(=O)O)c4cc(O)cc(O)c4-c4cc3ccc4O)[C@H](O)c3ccc(c(Cl)c3)Oc3cc2cc(c3O[C@@H]2O[C@H](CO)[C@@H](O)[C@H](O)[C@H]2O[C@H]2C[C@](C)(N)[C@H](O)[C@H](C)O2)Oc2ccc(cc2Cl)[C@H]1O [Vancomycin]
rapid and dramatic clinical improvement: Clinical outcome of index case [4]
> 512 µg/mL: MIC ([1]; Desulfovibrio strain 4019) | MIC ([1]; Desulfovibrio strain 8381) | MIC ([1]; Desulfovibrio strain 8907) | MIC ([1]; Desulfovibrio strain 8933) | MIC ([1]; Desulfovibrio strain 8951) | MIC ([1]; Desulfovibrio strain 9070) | MIC ([1]; Desulfovibrio strain 9120) | MIC ([1]; Desulfovibrio strain 9706) | MIC ([1]; Desulfovibrio strain 11094) | MIC ([1]; Desulfovibrio strain 11232) | MIC ([1]; Desulfovibrio strain 11346) | MIC ([1]; Desulfovibrio strain 11437) | MIC ([1]; Desulfovibrio strain 11568) | MIC ([1]; Desulfovibrio strain 11623) | MIC ([1]; Desulfovibrio strain 11717) | MIC ([1]; Desulfovibrio strain 11789) | MIC ([1]; Desulfovibrio strain 11830) | MIC ([1]; Desulfovibrio strain 11949) | MIC ([1]; Desulfovibrio strain 13966) | MIC ([1]; Desulfovibrio type strain 7757^T)
two: Time to substantial behavioral deterioration after discontinuance ([3]; reported by most parents, telephone follow-up)
improvement: Analog rating scale, communication ([3]; unblinded, group as a whole, Wilcoxon Signed Ranks Z=2.9 p=0.003) | Analog rating scale, behavior ([3]; unblinded, group as a whole, Wilcoxon Signed Ranks Z=-2.9, p=0.003)
1 µg/mL: MIC ([1]; Desulfovibrio type strain 29098^T)
eight of ten: Blinded assessment of coded, paired videotapes: children with improvement during therapy ([3]; 500 mg/day orally for eight weeks, no change in one, possible deterioration in one)
512 µg/mL: MIC ([1]; Desulfovibrio strain 9976)
2-5,000 mcg/gm: Fecal levels after oral administration [2]
returned towards baseline: Analog ratings at long-term follow-up ([3]; two to eight months after discontinuance, in all but one child)
256 µg/mL: MIC ([1]; Desulfovibrio strain 8236) | MIC ([1]; Desulfovibrio strain 10831) | MIC ([1]; Desulfovibrio strain 11081) | MIC ([1]; Desulfovibrio strain 11378) | MIC ([1]; Desulfovibrio strain 12379)
not very active on a weight basis: MIC against Desulfovibrio, summary in words ([1]; discussion of Table 14)
six: Children with brief (1-4 days) period of hyperactivity ([3]; within three days of initiating antibiotic treatment, eleven children enrolled)
